Experimental data from patent US10479792B2, “Compounds” (GlaxoSmithKline Intellectual Property Development Limited, priority 2015, dated 2019).

How the values were obtained:
[1] = tested on: Leishmania donovani; assay: Intramacrophage Leishmania donovani assay (Assay 1), average number of amastigotes per cell (potency readout); assay type: cell-based; conditions: THP-1, 96 h, amastigotes in PMA-differentiated THP-1 macrophages, 96 h incubation, read-out: pEC50 value against Leishmania donovani (converted)
Protocol: Assay 1. Intramacrophage Leishmania donovani Assay
The intramacrophage Leishmania assay was performed using a modified version of the method described in De Rycker et al. (Antimicrob Agents Chemother. 2013 July; 57(7):2913-22. Comparison of a high-throughput high-content intracellular Leishmania donovani assay with an axenic amastigote assay. De Rycker M, Hallyburton I, Thomas J, Campbell L, Wyllie S, Joshi D, Cameron S, Gilbert I H, Wyatt P G, Frearson J A, Fairlamb A H, Gray D W.). Procedure: 350 nl of compound was pre-dispensed into 384 well sterile intermediary plates. For single point screening, amphotericin B was added to all wells of column 24 as a positive control (final concentration 2 μM) and DMSO to column 23. For potency determinations, ten-point, one in three dilution curves were created with the highest concentration being 50 μM and on each plate a control curve of amphotericin B was included. Controls were as follows: columns 11 and 12: DMSO, columns 23 and 24: amphotericin B (final concentration 2 μM). To the intermediary plates, 35 μl of THP-1 media was added and plates were shaken for >5 min to ensure complete mixing. THP-1 cells (8,000 per well, 50 μl) were plated into black clear-bottom 384 well plates (Corning) in presence of 20 nM PMA. After 20 min at RT, the plates were incubated at 37° C. under 5% CO2 in a humidified incubator for 75 h. The cells were then washed with […] sterile phosphate buffered saline (PBS) supplemented with 1 mM CaCl2, 0.5 mM MgCl2, 0.1% (w/v) bovine serum albumin (PBS-A) and amastigotes were added to all wells at a multiplicity of infection of 5 (40,000 amastigotes per well). After 40 min at RT, plates were returned to the incubator. Amastigotes were incubated in the presence of THP-1 macrophages for 16 h. Any remaining extracellular amastigotes were subsequently removed with an overflow wash of 1 mL PBS-A per well (wash buffer is being aspirated from the top of the well as it is being dispensed) followed by addition of 25 μl of the compound pre-dilutions using a Fluidx Ipette-pro pipetting station. The final dilution of each compound was 200-fold. Plates were incubated for 96 h and then washed (250 μl PBS-A) and fixed (4% (v/v) formaldehyde-PBS, 30 min, RT). After fixation, the wells were washed with 250 μl PBS, stained (10 μg/mL DAPI, 0.4 μg mL-1 HCS Cellmask Deep Red in PBS+0.1% (v/v) Triton X-100, 30 min, RT) and washed with 250 μl PBS. Finally, PBS+0.05% (v/v) thimerosal was added to the wells, the plates were sealed and imaged on a high-content microscope (GE IN Cell 2000) using a 10× objective. Image analysis was carried out with GE IN Cell Analyzer 1000 Workstation using the “Multi Target Analysis” module. Settings for segmentation were as follows: nuclei: minimum area: 142.384 μm2, sensitivity: 81, method: top-hat; cells: characteristic area: 2500 μm2, sensitivity: 60, method: multiscale top-hat; organelles (amastigotes): granule size 1-3, 3 scales, sensitivity: 90, detection in entire cell. For each well, i) THP-1 cell count (cytotoxicity readout) and ii) average number of amastigotes per cell (potency readout) were calculated, both in terms of pEC50 values.

[2] = tested on: Leishmania donovani; assay: Leishmania donovani intracellular assay (Assay 5); assay type: cell-based; conditions: THP-1, 96 h, eGFP amastigotes in THP-1 cells, 96 h incubation, read-out: pEC50 value against Leishmania donovani (converted)
Protocol: Assay 5. Leishmania donovani Intracellular Assay
Compounds were dispensed into black 384-well assay plates (Greiner) by acoustic dispensing (LabCyte ECHO). For potency determinations, eleven-point, one in three dilution curves were generated, with a top concentration of 50 μM. THP-1 human monocytes cells were dispensed in T225 tissue culture flasks and differentiated using 30 nM of PMA, after 24 hours they were infected overnight using Leishmania donovani expressing Green Fluorescent Protein (eGFP) amastigotes in the same T225 tissue culture flasks at a multiplicity of infection of 10. Next, any remaining free amastigotes were washed away with PBS and the infected THP-1 cells were harvested by trypsinisation. The infected cells were then plated into 384-well plates containing the compounds to be tested, at 3000 cells per well in RPMI media with 2% FBS and 25 mM Sodium bicarbonate. After 96 h incubation at 37° C. in presence of 5% CO2, the plates were fixed with 4% formaldehyde for 30 minutes, washed with PBS and stained with 0.1 mg/mL of DAPI for 30 minutes and washed again with PBS. The plates were imaged on a Perkin Elmer Opera high-content imaging system using a 20× air objective with two expositions, one for DAPI stain and other for eGFP. Images were analysed using the Acapella building blocks system (Perkin Elmer). The image analysis algorithm first identified the THP-1 nuclei followed by demarcation of the cytoplasm and identification of intracellular amastigotes. This algorithm reported mean number of parasites per THP-1 cell, the percentage of infected THP-1 cells and the total number of THP-1 cells.

Row | EC50 [1] | Compound | EC50 [2]
1 | > 50.1 µM | CC1(C)CN(C(=O)Nc2ccc(F)c(-c3ccn4c(N5CCOCC5)cnc4n3)c2)C1 [N-(4-fluoro-3-(3-morpholinoimidazo[1,2-a]pyrimidin-7-yl)phenyl)-3,3-dimethylazetidine-1-carboxamide] | 
2 | > 50.1 µM | Cc1cc(F)c(-c2ccn3c(N4CCOCC4)cnc3n2)cc1NC(=O)N1CCCC1 [N-(4-fluoro-2-methyl-5-(3-morpholinoimidazo[1,2-a]pyrimidin-7-yl)phenyl)pyrrolidine-1-carboxamide] | 
3 | > 50.1 µM | CC1(C)CCCN1C(=O)Nc1ccc(F)c(-c2ccn3c(N4CCOCC4)cnc3n2)c1 [N-(4-fluoro-3-(3-morpholinoimidazo[1,2-a]pyrimidin-7-yl)phenyl)-2,2-dimethylpyrrolidine-1-carboxamide] | 
4 | 0.251 to 10 µM | O=C(Nc1ccc(F)c(-c2cnn3c(Br)cnc3n2)c1)N1CCCC1 [Example 6, N-(3-(7-bromoimidazo[1,2-b][1,2,4]triazin-3-yl)-4-fluorophenyl)pyrrolidine-1-carboxamide] | 
5 | 12.6 to 20 µM | O=C(Nc1ccc(F)c(-c2cnn3ccnc3n2)c1)N1CCCC1 [Example 11, N-(4-fluoro-3-(imidazo[1,2-b][1,2,4]triazin-3-yl)phenyl)pyrrolidine-1-carboxamide] | 
6 | > 50.1 µM | O=C1CN(c2cnc3nc(-c4cc(NC(=O)N5CCCC5)ccc4F)ccn23)CCN1 [Example 52, N-(4-fluoro-3-(3-(3-oxopiperazin-1-yl)imidazo[1,2-a]pyrimidin-7-yl)phenyl)pyrrolidine-1-carboxamide] | 
7 |  | O=C(Nc1ccc(F)c(-c2ccn3c(CC4CCCO4)cnc3n2)c1)N1CCCC1 (stereo not shown) [Example 45, N-(4-fluoro-3-(3-((tetrahydrofuran-2-yl)methyl)imidazo[1,2-a]pyrimidin-7-yl)phenyl)pyrrolidine-1-carboxamide] | 0.126 to 10 µM
8 | 0.251 to 10 µM | C[C@H]1CCN(C(=O)Nc2ccc(F)c(-c3ccn4c(N5CCOCC5)cnc4n3)c2)C1 [Example 34a] | 
9 | 0.251 to 10 µM | O=C(Nc1ccc(F)c(-c2cnn3c(N4CCOCC4)cnc3n2)c1)N1CCCC1 [Example 8, N-(4-fluoro-3-(7-morpholinoimidazo[1,2-b][1,2,4]triazin-3-yl)phenyl)pyrrolidine-1-carboxamide] | 
10 | 12.6 to 20 µM | O=C(Nc1ccc(F)c(-c2ccn3c(C4COCCN4)cnc3n2)c1)N1CCCC1 (stereo not shown) [Example 38, N-(4-fluoro-3-(3-(morpholin-3-yl)imidazo[1,2-a]pyrimidin-7-yl)phenyl)pyrrolidine-1-carboxamide] | 
11 | > 50.1 µM | CC1(C)CCN(C(=O)Nc2ccc(F)c(-c3ccn4c(N5CCOCC5)cnc4n3)c2)C1 [N-(4-fluoro-3-(3-morpholinoimidazo[1,2-a]pyrimidin-7-yl)phenyl)-3,3-dimethylpyrrolidine-1-carboxamide] | 
12 | 0.251 to 10 µM | O=C(Nc1cccc(-c2cnn3c(-c4ccccc4)cnc3n2)c1)N1CCCC1 [Example 10, N-(3-(7-phenylimidazo[1,2-b][1,2,4]triazin-3-yl)phenyl)pyrrolidine-1-carboxamide] | 
13 |  | O=C(Nc1ccc(F)c(-c2ccn3c(N4CCOCC4)cnc3n2)c1)N1CC[C@@H](F)C1 [Example 23, 3-fluoro-N-(4-fluoro-3-(3-morpholinoimidazo[1,2-a]pyrimidin-7-yl)phenyl)pyrrolidine-1-carboxamide] | 0.126 to 10 µM
14 |  | O=C(Nc1ccc(F)c(-c2ccn3c(N4CCOCC4)cnc3n2)c1)N1CCC1 [Example 51, N-(4-fluoro-3-(3-morpholinoimidazo[1,2-a]pyrimidin-7-yl)phenyl)azetidine-1-carboxamide] | 0.126 to 10 µM
15 | > 50.1 µM | N#Cc1ccc(NC(=O)N2CCCC2)cc1-c1ccn2c(N3CCOCC3)cnc2n1 [N-(4-cyano-3-(3-morpholinoimidazo[1,2-a]pyrimidin-7-yl)phenyl)pyrrolidine-1-carboxamide] | 
16 | 0.251 to 10 µM | O=C(Nc1cccc(-c2cnn3c(N4CCOCC4)cnc3n2)c1)N1CCCC1 [Example 9, N-(3-(7-morpholinoimidazo[1,2-b][1,2,4]triazin-3-yl)phenyl)pyrrolidine-1-carboxamide] | 

Row | Compound | EC50 [1] | EC50 [2]
17 | O=C(Nc1ccc(F)c(-c2ccn3c(-c4cnccn4)cnc3n2)c1)N1CCCC1 [Example 27, N-(4-fluoro-3-(3-(pyrazin-2-yl)imidazo[1,2-a]pyrimidin-7-yl)phenyl)pyrrolidine-1-carboxamide] | 0.251 to 10 µM | 0.126 to 10 µM
18 | Cc1cn2c(N3CCOCC3)cnc2nc1-c1cccc(NC(=O)N2CCCC2)c1 [Example 14, N-(3-(6-methyl-3-morpholinoimidazo[1,2-a]pyrimidin-7-yl)phenyl)pyrrolidine-1-carboxamide] | > 50.1 µM | 12.6 to 39.8 µM
19 | COC1CCN(c2cnc3nc(-c4cc(NC(=O)N5CCCC5)ccc4F)ccn23)CC1 [Example 47, N-(4-fluoro-3-(3-(4-methoxypiperidin-1-yl)imidazo[1,2-a]pyrimidin-7-yl)phenyl)pyrrolidine-1-carboxamide] | 0.251 to 10 µM | 0.126 to 10 µM
20 | O=C(Nc1ccc(F)c(-c2ccn3c(N4CCCOCC4)cnc3n2)c1)N1CCCC1 [Example 22, N-(3-(3-(1,4-oxazepan-4-yl)imidazo[1,2-a]pyrimidin-7-yl)-4-fluorophenyl)pyrrolidine-1-carboxamide] | 0.251 to 10 µM | 0.126 to 10 µM
21 | O=C(Nc1ccc(F)c(-c2ccn3c(N4CCOCC4)cnc3n2)c1)N1CCC(F)(F)C1 [Example 25, 3,3-difluoro-N-(4-fluoro-3-(3-morpholinoimidazo[1,2-a]pyrimidin-7-yl)phenyl)pyrrolidine-1-carboxamide] | 12.6 to 20 µM | 0.126 to 10 µM
22 | CC1COCCN1c1cnc2nc(-c3cc(NC(=O)N4CCCC4)ccc3F)ccn12 (stereo not shown) [Example 31, N-(4-fluoro-3-(3-(3-methylmorpholino)imidazo[1,2-a]pyrimidin-7-yl)phenyl)pyrrolidine-1-carboxamide] | 0.251 to 10 µM | 0.126 to 10 µM
23 | CC1CN(C(=O)Nc2ccc(F)c(-c3ccn4c(N5CCOCC5)cnc4n3)c2)C1 [Example 49, N-(4-fluoro-3-(3-morpholinoimidazo[1,2-a]pyrimidin-7-yl)phenyl)-3-methylazetidine-1-carboxamide] | 12.6 to 20 µM | 0.126 to 10 µM
24 | CC(C)(C)OC(=O)N1CCN(c2cnc3nc(-c4cc(NC(=O)N5CCCC5)ccc4F)ccn23)CC1 [Example 35, tert-butyl 4-(7-(2-fluoro-5-(pyrrolidine-1-carboxamido)phenyl)imidazo[1,2-a]pyrimidin-3-yl)piperazine-1-carboxylate] | 0.251 to 10 µM | 0.126 to 10 µM
25 | CCc1cc(-c2cc(NC(=O)N3CCCC3)ccc2F)nc2ncc(N3CCOCC3)n12 [Example 13, N-(3-(5-ethyl-3-morpholinoimidazo[1,2-a]pyrimidin-7-yl)-4-fluorophenyl)pyrrolidine-1-carboxamide] | 0.251 to 10 µM | 0.126 to 10 µM
